Reference: the NIST ThermoML archive (doi:10.1016/j.jct.2016.08.005)
± gives the expanded uncertainty stated by the source.

Details: Liquid, Vibrating tube method

Cc1ccsc1 [3-methylthiophene]
Details	mass density [kg/m3]
283.15 K, 100 kPa	1031.82 ± 0.51
283.15 K, 2000 kPa	1033.26 ± 0.51
283.15 K, 5000 kPa	1035.47 ± 0.51
283.15 K, 7000 kPa	1036.93 ± 0.51
283.15 K, 10000 kPa	1039.07 ± 0.51
283.15 K, 15000 kPa	1042.56 ± 0.51
283.15 K, 20000 kPa	1045.93 ± 0.52
283.15 K, 25000 kPa	1049.2 ± 0.52
283.15 K, 30000 kPa	1052.37 ± 0.52
283.15 K, 35000 kPa	1055.46 ± 0.53
283.15 K, 40000 kPa	1058.46 ± 0.53
283.15 K, 45000 kPa	1061.37 ± 0.54
283.15 K, 50000 kPa	1064.22 ± 0.54
283.15 K, 55000 kPa	1066.97 ± 0.55
283.15 K, 60000 kPa	1069.67 ± 0.56
283.15 K, 65000 kPa	1072.32 ± 0.57
288.15 K, 100 kPa	1026.57 ± 0.51
288.15 K, 2000 kPa	1028.05 ± 0.51
288.15 K, 5000 kPa	1030.34 ± 0.51
288.15 K, 7000 kPa	1031.84 ± 0.51
288.15 K, 10000 kPa	1034.03 ± 0.51
288.15 K, 15000 kPa	1037.61 ± 0.51
288.15 K, 20000 kPa	1041.07 ± 0.51
288.15 K, 25000 kPa	1044.41 ± 0.52
288.15 K, 30000 kPa	1047.65 ± 0.52
288.15 K, 35000 kPa	1050.8 ± 0.52
288.15 K, 40000 kPa	1053.86 ± 0.53
288.15 K, 45000 kPa	1056.84 ± 0.53
288.15 K, 50000 kPa	1059.74 ± 0.54
288.15 K, 55000 kPa	1062.56 ± 0.55
288.15 K, 60000 kPa	1065.32 ± 0.56
288.15 K, 65000 kPa	1068.01 ± 0.56
293.15 K, 100 kPa	1021.31 ± 0.51
293.15 K, 2000 kPa	1022.81 ± 0.51
293.15 K, 5000 kPa	1025.16 ± 0.51
293.15 K, 7000 kPa	1026.7 ± 0.51
293.15 K, 10000 kPa	1028.95 ± 0.51
293.15 K, 15000 kPa	1032.61 ± 0.51
293.15 K, 20000 kPa	1036.16 ± 0.51
293.15 K, 25000 kPa	1039.6 ± 0.52
293.15 K, 30000 kPa	1042.92 ± 0.52
293.15 K, 35000 kPa	1046.15 ± 0.52
293.15 K, 40000 kPa	1049.27 ± 0.53
293.15 K, 45000 kPa	1052.31 ± 0.53
293.15 K, 50000 kPa	1055.28 ± 0.54
293.15 K, 55000 kPa	1058.15 ± 0.54
293.15 K, 60000 kPa	1060.96 ± 0.55
293.15 K, 65000 kPa	1063.7 ± 0.56
298.15 K, 100 kPa	1016 ± 0.51
298.15 K, 2000 kPa	1017.57 ± 0.51
298.15 K, 5000 kPa	1019.98 ± 0.51
298.15 K, 7000 kPa	1021.56 ± 0.51
298.15 K, 10000 kPa	1023.89 ± 0.51
298.15 K, 15000 kPa	1027.64 ± 0.51
298.15 K, 20000 kPa	1031.29 ± 0.51
298.15 K, 25000 kPa	1034.81 ± 0.51
298.15 K, 30000 kPa	1038.2 ± 0.52
298.15 K, 35000 kPa	1041.52 ± 0.52
298.15 K, 40000 kPa	1044.71 ± 0.52
298.15 K, 45000 kPa	1047.82 ± 0.53
298.15 K, 50000 kPa	1050.84 ± 0.53
298.15 K, 55000 kPa	1053.78 ± 0.54
298.15 K, 60000 kPa	1056.65 ± 0.55
298.15 K, 65000 kPa	1059.43 ± 0.55
303.15 K, 100 kPa	1010.72 ± 0.51
303.15 K, 2000 kPa	1012.32 ± 0.51
303.15 K, 5000 kPa	1014.81 ± 0.51
303.15 K, 7000 kPa	1016.43 ± 0.51
303.15 K, 10000 kPa	1018.83 ± 0.51
303.15 K, 15000 kPa	1022.7 ± 0.51
303.15 K, 20000 kPa	1026.42 ± 0.51
303.15 K, 25000 kPa	1030.01 ± 0.51
303.15 K, 30000 kPa	1033.5 ± 0.52
303.15 K, 35000 kPa	1036.87 ± 0.52
303.15 K, 40000 kPa	1040.16 ± 0.52
303.15 K, 45000 kPa	1043.34 ± 0.53
303.15 K, 50000 kPa	1046.42 ± 0.53
303.15 K, 55000 kPa	1049.41 ± 0.54
303.15 K, 60000 kPa	1052.33 ± 0.54
303.15 K, 65000 kPa	1055.16 ± 0.55
308.15 K, 100 kPa	1005.4 ± 0.51
308.15 K, 2000 kPa	1007.04 ± 0.51
308.15 K, 5000 kPa	1009.61 ± 0.51
308.15 K, 7000 kPa	1011.27 ± 0.51
308.15 K, 10000 kPa	1013.72 ± 0.51
308.15 K, 15000 kPa	1017.69 ± 0.51
308.15 K, 20000 kPa	1021.53 ± 0.51
308.15 K, 25000 kPa	1025.22 ± 0.51
308.15 K, 30000 kPa	1028.73 ± 0.51
308.15 K, 35000 kPa	1032.24 ± 0.52
308.15 K, 40000 kPa	1035.59 ± 0.52
308.15 K, 45000 kPa	1038.84 ± 0.52
308.15 K, 50000 kPa	1041.98 ± 0.53
308.15 K, 55000 kPa	1045.05 ± 0.53
308.15 K, 60000 kPa	1048.03 ± 0.54
308.15 K, 65000 kPa	1050.91 ± 0.54
313.15 K, 100 kPa	1000.05 ± 0.51
313.15 K, 2000 kPa	1001.76 ± 0.51
313.15 K, 5000 kPa	1004.39 ± 0.51
313.15 K, 7000 kPa	1006.11 ± 0.51
313.15 K, 10000 kPa	1008.64 ± 0.51
313.15 K, 15000 kPa	1012.71 ± 0.51
313.15 K, 20000 kPa	1016.63 ± 0.51
313.15 K, 25000 kPa	1020.43 ± 0.51
313.15 K, 30000 kPa	1024.08 ± 0.51
313.15 K, 35000 kPa	1027.61 ± 0.51
313.15 K, 40000 kPa	1031.05 ± 0.52
313.15 K, 45000 kPa	1034.35 ± 0.52
313.15 K, 50000 kPa	1037.58 ± 0.52
313.15 K, 55000 kPa	1040.71 ± 0.53
313.15 K, 60000 kPa	1043.73 ± 0.53
313.15 K, 65000 kPa	1046.69 ± 0.54
318.15 K, 100 kPa	994.7 ± 0.51
318.15 K, 2000 kPa	996.44 ± 0.51
318.15 K, 5000 kPa	999.15 ± 0.51
318.15 K, 7000 kPa	1000.93 ± 0.51
318.15 K, 10000 kPa	1003.52 ± 0.51
318.15 K, 15000 kPa	1007.7 ± 0.51
318.15 K, 20000 kPa	1011.74 ± 0.51
318.15 K, 25000 kPa	1015.6 ± 0.51
318.15 K, 30000 kPa	1019.35 ± 0.51
318.15 K, 35000 kPa	1022.99 ± 0.51
318.15 K, 40000 kPa	1026.48 ± 0.52
318.15 K, 45000 kPa	1029.86 ± 0.52
318.15 K, 50000 kPa	1033.15 ± 0.52
318.15 K, 55000 kPa	1036.33 ± 0.53
318.15 K, 60000 kPa	1039.44 ± 0.53
318.15 K, 65000 kPa	1042.45 ± 0.53
323.15 K, 100 kPa	989.3 ± 0.51
323.15 K, 2000 kPa	991.1 ± 0.51
323.15 K, 5000 kPa	993.9 ± 0.51
323.15 K, 7000 kPa	995.72 ± 0.51
323.15 K, 10000 kPa	998.41 ± 0.51
323.15 K, 15000 kPa	1002.71 ± 0.51
323.15 K, 20000 kPa	1006.85 ± 0.51
323.15 K, 25000 kPa	1010.83 ± 0.51
323.15 K, 30000 kPa	1014.66 ± 0.51
323.15 K, 35000 kPa	1018.35 ± 0.51
323.15 K, 40000 kPa	1021.93 ± 0.51
323.15 K, 45000 kPa	1025.4 ± 0.52
323.15 K, 50000 kPa	1028.76 ± 0.52
323.15 K, 55000 kPa	1032.03 ± 0.52
323.15 K, 60000 kPa	1035.18 ± 0.53
323.15 K, 65000 kPa	1038.24 ± 0.53
328.15 K, 100 kPa	983.88 ± 0.51
328.15 K, 2000 kPa	985.74 ± 0.51
328.15 K, 5000 kPa	988.63 ± 0.51
328.15 K, 7000 kPa	990.51 ± 0.51
328.15 K, 10000 kPa	993.26 ± 0.51
328.15 K, 15000 kPa	997.7 ± 0.51
328.15 K, 20000 kPa	1001.93 ± 0.51
328.15 K, 25000 kPa	1006 ± 0.51
328.15 K, 30000 kPa	1009.94 ± 0.51
328.15 K, 35000 kPa	1013.73 ± 0.51
328.15 K, 40000 kPa	1017.38 ± 0.51
328.15 K, 45000 kPa	1020.94 ± 0.51
328.15 K, 50000 kPa	1024.36 ± 0.52
328.15 K, 55000 kPa	1027.68 ± 0.52
328.15 K, 60000 kPa	1030.89 ± 0.52
328.15 K, 65000 kPa	1034.03 ± 0.53
333.15 K, 100 kPa	978.47 ± 0.51
333.15 K, 2000 kPa	980.39 ± 0.51
333.15 K, 5000 kPa	983.35 ± 0.51
333.15 K, 7000 kPa	985.3 ± 0.51
333.15 K, 10000 kPa	988.13 ± 0.51
333.15 K, 15000 kPa	992.67 ± 0.51
333.15 K, 20000 kPa	997.03 ± 0.51
333.15 K, 25000 kPa	1001.22 ± 0.51
333.15 K, 30000 kPa	1005.22 ± 0.51
333.15 K, 35000 kPa	1009.12 ± 0.51
333.15 K, 40000 kPa	1012.87 ± 0.51
333.15 K, 45000 kPa	1016.49 ± 0.51
333.15 K, 50000 kPa	1020 ± 0.51
333.15 K, 55000 kPa	1023.38 ± 0.52
333.15 K, 60000 kPa	1026.67 ± 0.52
333.15 K, 65000 kPa	1029.88 ± 0.52
338.15 K, 100 kPa	972.98 ± 0.51
338.15 K, 2000 kPa	974.96 ± 0.51
338.15 K, 5000 kPa	978.01 ± 0.51
338.15 K, 7000 kPa	980.02 ± 0.51
338.15 K, 10000 kPa	982.95 ± 0.51
338.15 K, 15000 kPa	987.63 ± 0.51
338.15 K, 20000 kPa	992.12 ± 0.51
338.15 K, 25000 kPa	996.41 ± 0.51
338.15 K, 30000 kPa	1000.53 ± 0.51
338.15 K, 35000 kPa	1004.49 ± 0.51
338.15 K, 40000 kPa	1008.33 ± 0.51
338.15 K, 45000 kPa	1012.04 ± 0.51
338.15 K, 50000 kPa	1015.62 ± 0.51
338.15 K, 55000 kPa	1019.08 ± 0.51
338.15 K, 60000 kPa	1022.44 ± 0.52
338.15 K, 65000 kPa	1025.7 ± 0.52
